Measurements: PubChem BioAssay AID1259407 (Chemical Carcinogenesis Research Information System (CCRIS), 2018)
The source made the active and inactive calls. The rule behind the calls is not given here.

Tested on: CCRIS mutagenicity, Ames/micronucleus/aberration tests
Experiment: CCRIS mutagenicity studies
[1] = Test System: AMES SALMONELLA TYPHIMURIUM, Strain/Indicator: TA98, Metabolic Activation: NONE, Method: PREINCUBATION
[2] = Test System: AMES SALMONELLA TYPHIMURIUM, Strain/Indicator: TA100, Metabolic Activation: NONE, Method: PREINCUBATION

## ON=C1CCCCC1
Test System: AMES SALMONELLA TYPHIMURIUM, Strain/Indicator: TA97, Metabolic Activation: HAMSTER, LIVER, S-9, AROCLOR 1254 (30%), Method: PREINCUBATION
  mutagenic call: inactive; negative
Test System: AMES SALMONELLA TYPHIMURIUM, Strain/Indicator: TA97, Metabolic Activation: NONE, Method: PREINCUBATION
  mutagenic call: inactive; negative
Test System: AMES SALMONELLA TYPHIMURIUM, Strain/Indicator: TA97, Metabolic Activation: RAT, LIVER, S-9, AROCLOR 1254 (30%), Method: PREINCUBATION
  mutagenic call: inactive; negative
Test System: AMES SALMONELLA TYPHIMURIUM, Strain/Indicator: TA98, Metabolic Activation: HAMSTER, LIVER, S-9, AROCLOR 1254 (30%), Method: PREINCUBATION
  mutagenic call: inactive; negative
Test System: AMES SALMONELLA TYPHIMURIUM, Strain/Indicator: TA98, Metabolic Activation: HAMSTER, LIVER, S-9, AROCLOR 1254, Method: STANDARD PLATE
  mutagenic call: inactive; negative
[1]
  mutagenic call: inactive; negative
Test System: AMES SALMONELLA TYPHIMURIUM, Strain/Indicator: TA98, Metabolic Activation: NONE, Method: STANDARD PLATE
  mutagenic call: inactive; negative
Test System: AMES SALMONELLA TYPHIMURIUM, Strain/Indicator: TA98, Metabolic Activation: RAT, LIVER, S-9, AROCLOR 1254 (30%), Method: PREINCUBATION
  mutagenic call: inactive; negative
Test System: AMES SALMONELLA TYPHIMURIUM, Strain/Indicator: TA98, Metabolic Activation: RAT, LIVER, S-9, AROCLOR 1254, Method: STANDARD PLATE
  mutagenic call: inactive; negative
Test System: AMES SALMONELLA TYPHIMURIUM, Strain/Indicator: TA100, Metabolic Activation: HAMSTER LIVER S-9, AROCLOR 1254, Method: PREINCUBATION
  mutagenic call: inactive; negative
Test System: AMES SALMONELLA TYPHIMURIUM, Strain/Indicator: TA100, Metabolic Activation: HAMSTER, LIVER, S-9, AROCLOR 1254 (30%), Method: PREINCUBATION
  mutagenic call: inactive; negative
Test System: AMES SALMONELLA TYPHIMURIUM, Strain/Indicator: TA100, Metabolic Activation: HAMSTER, LIVER, S-9, AROCLOR 1254, Method: STANDARD PLATE
  mutagenic call: inactive; negative
[2]
  mutagenic call: inactive; negative
Test System: AMES SALMONELLA TYPHIMURIUM, Strain/Indicator: TA100, Metabolic Activation: NONE, Method: STANDARD PLATE
  mutagenic call: inactive; negative
Test System: AMES SALMONELLA TYPHIMURIUM, Strain/Indicator: TA100, Metabolic Activation: RAT, LIVER, S-9, AROCLOR 1254 (30%), Method: PREINCUBATION
  mutagenic call: inactive; negative
Test System: AMES SALMONELLA TYPHIMURIUM, Strain/Indicator: TA100, Metabolic Activation: RAT, LIVER, S-9, AROCLOR 1254, Method: STANDARD PLATE
  mutagenic call: inactive; negative
Test System: AMES SALMONELLA TYPHIMURIUM, Strain/Indicator: TA1535, Metabolic Activation: HAMSTER LIVER S-9, AROCLOR 1254, Method: PREINCUBATION
  mutagenic call: active; positive
Test System: AMES SALMONELLA TYPHIMURIUM, Strain/Indicator: TA1535, Metabolic Activation: HAMSTER, LIVER, S-9, AROCLOR 1254 (5,10 OR 30%), Method: PREINCUBATION
  mutagenic call: active; positive
Test System: AMES SALMONELLA TYPHIMURIUM, Strain/Indicator: TA1535, Metabolic Activation: HAMSTER, LIVER, S-9, AROCLOR 1254, Method: STANDARD PLATE
  mutagenic call: inactive; negative
Test System: AMES SALMONELLA TYPHIMURIUM, Strain/Indicator: TA1535, Metabolic Activation: NONE, Method: STANDARD PLATE
  mutagenic call: inactive; negative
Test System: AMES SALMONELLA TYPHIMURIUM, Strain/Indicator: TA1535, Metabolic Activation: RAT, LIVER, S-9, AROCLOR 1254 (30%), Method: PREINCUBATION
  mutagenic call: inactive; negative
Test System: AMES SALMONELLA TYPHIMURIUM, Strain/Indicator: TA1535, Metabolic Activation: RAT, LIVER, S-9, AROCLOR 1254, Method: STANDARD PLATE
  mutagenic call: inactive; negative
Test System: AMES SALMONELLA TYPHIMURIUM, Strain/Indicator: TA1537, Metabolic Activation: HAMSTER, LIVER, S-9, AROCLOR 1254, Method: STANDARD PLATE
  mutagenic call: inactive; negative
Test System: AMES SALMONELLA TYPHIMURIUM, Strain/Indicator: TA1537, Metabolic Activation: NONE, Method: STANDARD PLATE
  mutagenic call: inactive; negative
Test System: AMES SALMONELLA TYPHIMURIUM, Strain/Indicator: TA1537, Metabolic Activation: RAT, LIVER, S-9, AROCLOR 1254, Method: STANDARD PLATE
  mutagenic call: inactive; negative
Test System: AMES SALMONELLA TYPHIMURIUM, Strain/Indicator: TA1538, Metabolic Activation: HAMSTER, LIVER, S-9, AROCLOR 1254, Method: STANDARD PLATE
  mutagenic call: inactive; negative
Test System: AMES SALMONELLA TYPHIMURIUM, Strain/Indicator: TA1538, Metabolic Activation: NONE, Method: STANDARD PLATE
  mutagenic call: inactive; negative
Test System: AMES SALMONELLA TYPHIMURIUM, Strain/Indicator: TA1538, Metabolic Activation: RAT, LIVER, S-9, AROCLOR 1254, Method: STANDARD PLATE
  mutagenic call: inactive; negative
Test System: MOUSE LYMPHOMA, Strain/Indicator: L5178Y (TK+/TK-), Metabolic Activation: NONE, Method: SUSPENSION/PLATE
  mutagenic call: active; positive. reevaluation of results: positive
Test System: MOUSE LYMPHOMA, Strain/Indicator: L5178Y (TK+/TK-), Metabolic Activation: RAT, LIVER, S-9, AROCLOR 1254, Method: SUSPENSION/PLATE
  mutagenic call: inactive; negative. reevaluation of results: negative

## CCC[CH2][Sn]([CH2]CCC)([CH2]CCC)[CH2]CCC
Test System: AMES SALMONELLA TYPHIMURIUM, Strain/Indicator: TA98, Metabolic Activation: NONE, Method: SUSPENSION/PLATE
  mutagenic call: inactive; negative
Test System: AMES SALMONELLA TYPHIMURIUM, Strain/Indicator: TA100, Metabolic Activation: NONE, Method: SUSPENSION/PLATE
  mutagenic call: inactive; negative

## CC(=O)Nc1ccc(Oc2ccc([N+](=O)[O-])cc2)cc1
Test System: AMES SALMONELLA TYPHIMURIUM, Strain/Indicator: TA98(1,8-DNP6), Metabolic Activation: NONE, Method: PREINCUBATION
  mutagenic call: inactive; negative
Test System: AMES SALMONELLA TYPHIMURIUM, Strain/Indicator: TA98(1,8-DNP6), Metabolic Activation: RAT, LIVER, S-9, AROCLOR 1254, Method: PREINCUBATION
  mutagenic call: inactive; negative
Test System: AMES SALMONELLA TYPHIMURIUM, Strain/Indicator: TA98(NR), Metabolic Activation: NONE, Method: PREINCUBATION
  mutagenic call: inactive; negative
Test System: AMES SALMONELLA TYPHIMURIUM, Strain/Indicator: TA98(NR), Metabolic Activation: RAT, LIVER, S-9, AROCLOR 1254, Method: PREINCUBATION
  mutagenic call: inactive; negative
[1]
  mutagenic call: active; positive
Test System: AMES SALMONELLA TYPHIMURIUM, Strain/Indicator: TA98, Metabolic Activation: RAT, LIVER, S-9, AROCLOR 1254, Method: PREINCUBATION
  mutagenic call: active; positive
Test System: AMES SALMONELLA TYPHIMURIUM, Strain/Indicator: TA100(NR), Metabolic Activation: NONE, Method: PREINCUBATION
  mutagenic call: inactive; negative
Test System: AMES SALMONELLA TYPHIMURIUM, Strain/Indicator: TA100(NR), Metabolic Activation: RAT, LIVER, S-9, AROCLOR 1254, Method: PREINCUBATION
  mutagenic call: active; positive
[2]
  mutagenic call: active; positive
Test System: AMES SALMONELLA TYPHIMURIUM, Strain/Indicator: TA100, Metabolic Activation: RAT, LIVER, S-9, AROCLOR 1254, Method: PREINCUBATION
  mutagenic call: active; positive
